Measured values: article PMC4533885, “Mouse Mincle: Characterization as a Model for Human Mincle and Evolutionary Implications” (Molecules, 2015)

Target: T1, mouse mincle (CLEC-4E) CRD, biotin-tagged (Mus musculus, UniProt Q9R0Q8)
T1 construct: gene Clec4e; minimal C-terminal carbohydrate-recognition domain (primers encode ACPLNWKHY... to ...PEISPLD) with C-terminal biotinylation tag GLNDIFEAQKIEWHE kept; immobilized on streptavidin wells
T1 sequence (Q9R0Q8 80-214): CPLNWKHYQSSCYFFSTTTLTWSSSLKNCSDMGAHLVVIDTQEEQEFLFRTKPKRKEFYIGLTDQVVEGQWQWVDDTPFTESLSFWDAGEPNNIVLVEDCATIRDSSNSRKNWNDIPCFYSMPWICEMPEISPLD
Experiment: solid-phase competition with […]-Man-BSA reporter, CRD immobilized on streptavidin wells
Type: binding

Ki: 540 ± 180 µM
SMILES: OC[C@H]1O[C@H](O[C@H]2O[C@H](CO)[C@@H](O)[C@H](O)[C@H]2O)[C@H](O)[C@@H](O)[C@@H]1O [trehalose]
